67 molecules from PubChem BioAssay AID1417 (Emory University Molecular Libraries Screening Center, 2008) can be followed below.

A value given as a limit tells only on which side of the number the result lay.

Induced myeloid leukemia cell differentiation protein Mcl-1 (Homo sapiens), sequence (Q07820 whole entry, looked up): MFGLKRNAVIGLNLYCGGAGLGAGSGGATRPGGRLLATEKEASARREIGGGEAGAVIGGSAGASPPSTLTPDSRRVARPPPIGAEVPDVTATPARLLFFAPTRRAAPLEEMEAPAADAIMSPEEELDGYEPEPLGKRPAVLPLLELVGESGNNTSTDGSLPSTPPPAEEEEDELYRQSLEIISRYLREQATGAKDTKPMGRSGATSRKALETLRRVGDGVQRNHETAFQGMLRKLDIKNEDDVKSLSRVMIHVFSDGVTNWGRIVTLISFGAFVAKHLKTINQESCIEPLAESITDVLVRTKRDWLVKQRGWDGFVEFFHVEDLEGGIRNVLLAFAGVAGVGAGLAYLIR

This test addresses Induced myeloid leukemia cell differentiation protein Mcl-1 (Homo sapiens) (UniProt Q07820). In words: Mcl-1 Noxa peptide disruption concentration-response – biochemical, TR-FRET, dose response (AID 1417). To be noted: Mcl-1/Noxa peptide interaction, cell-free TR-FRET (terbium/rhodamine), 2 h; measured here: absolute IC50. For orientation: Time-resolved FRET reads energy transfer from a long-lived donor to a nearby acceptor.
As usually defined, the IC50 is the midpoint of a concentration-inhibition curve. A low value points to inhibition by little substance. `Oc1ccc(/C=N/Nc2ccnc3cc(Cl)ccc23)cc1O` came in with an IC50 of 1990 nM. This lies in the single-digit micromolar range.

`O=C(Nc1ccccc1Cl)c1cnccn1` gave an IC50 above 54000 nM.

Turning to `O=C(O)CCn1cc(C=C2C(=O)NC(=S)NC2=O)c(-c2cccc(Cl)c2)n1`, the IC50 came to 1810 nM.

For `CNc1sc(C(=O)c2ccccc2F)c(N)c1-c1nc2ccccc2s1`, the IC50 stood at 5670 nM.

Turning to `CN(C)c1ccc(C(CNC(=O)c2ccc(F)cc2)c2c[nH]c3ccccc23)cc1` (configuration not stated), the IC50 is above 54000 nM.

Take `Cc1ccc(N=Nc2ccc(O)c(/C=N\NC(=O)c3ccc(N)cc3)c2)cc1C`: the IC50 was 2240 nM.

Take `O=C(N/N=C/c1ccc(O)cc1)c1cccc(N/N=C/c2ccc(O)cc2)c1`: the IC50 worked out at 2050 nM. The IC50 values of the last two molecules are within 1.5-fold of each other.

The molecule `Cc1ccc(NC(=O)CN2C(=O)N/C(=C/c3cccn3-c3ccc(C(=O)O)cc3)C2=O)cc1` yielded an IC50 above 54000 nM.

The molecule `COc1cc(-c2ccc(Nc3ccccc3C(=O)O)c(OC)c2)ccc1Nc1ccccc1C(=O)O` returned an IC50 below 400 nM.

`Cc1ccc(NC(=O)Cn2c(O)c(N=NC(=O)c3cc4ccccc4cc3O)c3ccccc32)cc1` showed an IC50 of 2980 nM. This counts as single-digit micromolar.

`C/C=C\C=C/C(=O)Nc1cccc(C2=NOC3(C2)C[C@@H](C(N)=O)N(C(=O)c2ccccc2)C3)c1` (some centres not stated) registered a concentration for half-maximal inhibition (IC50) of 50900 nM. Compared with the last molecule, the IC50 is about 17-fold higher.

With `Cc1ccc(NC(=O)CN2C(=O)N/C(=C/c3cc(C)n(-c4ccc(C(=O)O)cc4)c3C)C2=O)cc1`, the IC50 turned out to be 5140 nM. Against the preceding molecule, the IC50 is about 9.9-fold lower.

`CCN(CC)S(=O)(=O)c1ccc(N2CCOCC2)c(NC(=O)c2c3c(nc4ccccc24)CCC3)c1`: the IC50 was 5730 nM.

For the molecule `Cc1ccc(-c2c3c([nH]c(=S)c2C#N)CCCC3)o1`, the IC50 amounted to 1170 nM.

With `O=C(O)c1ccc(N/N=C/C2=C(N3CCOCC3)C(=C\c3ccccc3)/CC2)cc1`, the IC50 amounted to 2020 nM.

In turn, `CCOC(=O)c1ccc(N=Nc2c(C)c(C#N)c(O)[nH]c2=O)cc1` gave a half-maximal inhibitory concentration (IC50) of 2840 nM.

On to `O=c1c2c3c(sc2[nH]c(=S)n1Cc1ccco1)CCC3`, for which the IC50 came to 1420 nM.

Molecule `CC1=C(C#N)C(=O)NC(=O)/C1=C\c1ccc(-c2ccc(C)cc2[N+](=O)[O-])o1` displayed an IC50 below 400 nM.

`COc1ccc(OC)c2c1C(=O)C(Cl)=C(Cl)C2=O` came in with an IC50 below 400 nM.

On to `O=C1/C(=C/c2ccco2)SC(=S)N1c1cccnc1`, for which the IC50 was above 54000 nM.

Molecule `COc1cc(OC)c2c(O)c3c(c(-c4c5c(c(O)c6c(OC)cc(OC)cc46)CO[C@@H](C)[C@H]5O)c2c1)[C@H](O)[C@H](C)OC3` had an IC50 above 54000 nM.

`COc1ccc(/C=N/NC(=O)c2ccc(O)cc2O)cc1CSc1ccccn1`: the IC50 turned out to be 2480 nM.

As to `CCN(CC)Cc1cc(O)c(CN(CC)CC)cc1O`, the IC50 was below 400 nM.

In the case of `Cc1nc(NC(=O)c2ccco2)sc1-c1csc(Nc2ccc(Cl)cc2Cl)n1`, the IC50 stood at 1240 nM. That is a single-digit micromolar value.

Regarding `CC12CN3CC(C)(CN(C1)C3c1ccccc1Cl)C2O` (configuration not stated), the IC50 was above 54000 nM.

In the case of `Cc1nc2c(c(=O)n1CCC1=CCCCC1)c1nc3ccccc3nc1n2/N=C/c1ccco1`, the IC50 is 4440 nM. This lies in the single-digit micromolar range.

`CCOC(=O)c1c(C)oc2c1c(C(c1cccnc1)N1CCOCC1)c(O)c1ccccc12` (configuration not stated) returned an IC50 below 400 nM.

`CN(C)c1ccc(NC(=O)c2cccc(C(=O)Nc3ccc(N(C)C)cc3)n2)cc1`: the IC50 stood at 4030 nM.

`Cc1nnc(NC(=O)c2sc3nc(-c4cccs4)cc(C(F)(F)F)c3c2N)s1` registered a concentration for half-maximal inhibition (IC50) of 1600 nM.

In turn, `CNCc1ccccc1OCc1ccccc1F` returned an IC50 of 5270 nM.

Turning to `c1ccc(-c2ccc(-c3n(-c4ccccn4)c4ccccc4[n+]3-c3ccccn3)cc2)cc1`, the IC50 is 34600 nM.

Regarding `Cc1cccc(/N=C/c2sc3ccccc3c2O)n1`, the IC50 turned out to be 759 nM. Compared with the last molecule, the IC50 is about 46-fold lower.

`OCCNc1nc(Nc2ccccc2)nc(Nc2ccccc2)n1`: the half-inhibitory concentration (IC50) is above 54000 nM.

`O=C(/C=C/c1ccco1)Nc1ccc2nn(-c3ccccc3)nc2c1` returned an IC50 of 3240 nM.

`CCc1cc(C(=O)N=Nc2c(O)[nH]c3ccc([N+](=O)[O-])cc23)c2ccccc2n1`: the IC50 stood at 5990 nM. This IC50 is about 1.8-fold higher than that of the molecule before.

`CN(C)c1ccc(CC(=O)c2nc3ccccc3s2)cc1` gave an IC50 of 3190 nM.

Molecule `CC(=O)Nc1sc(N/N=C\c2ccco2)nc1-c1cccs1` gave an IC50 of 10600 nM.

The molecule `O=C(COC(=O)c1ccc(NS(=O)(=O)c2cccs2)cc1)NCc1ccco1` showed an IC50 of 2410 nM.

Turning to `CC1=C(C#N)C(=O)NC(=O)/C1=C/c1ccc(-c2ccc(S(N)(=O)=O)cc2)o1`, the IC50 was below 400 nM.

As to `Cc1cc2nc(-c3ccc(SCC(=O)N4CCN(C(=O)c5ccco5)CC4)nc3)[nH]c2cc1C`, the IC50 is 4160 nM.

Molecule `COc1ccc(-c2cc3nc4ccccc4n3c(N)c2C#N)cc1` returned an IC50 of 4450 nM. The IC50 values of the last two molecules are within 1.5-fold of each other.

Molecule `COc1cc2c(-c3ccc(O)cc3)nc3c(c(C)nn3-c3ccccc3)c2cc1OC` displayed an IC50 of 1190 nM.

`O=C(O)c1ccc2nc(-c3ccco3)c(-c3ccco3)nc2c1` came in with an IC50 of 1630 nM.

`Cn1c(=O)c(C(=O)COC(=O)c2cc(-c3ccco3)nc3ccccc23)c(N)n(CC2CC2)c1=O` returned an IC50 of 449 nM.

`CC(=O)c1ccc(NC(=O)CC2Nc3cccc4cccc(c34)NC2=O)cc1` (configuration not stated) registered an IC50 of 3620 nM.

`O=C(O)CCC(=O)NCCC1=c2ccccc2=N/C1=C\c1c(O)n(Cc2ccc(F)cc2)c(=S)[nH]c1=O` returned an IC50 below 400 nM.

In turn, `Cc1c(N=Nc2c(-c3ccc([N+](=O)[O-])cc3)[nH]n(C(N)=S)c2=O)cccc1[N+](=O)[O-]` displayed an IC50 below 400 nM.

`Cc1ccc(/C=c2\sc3nc(-c4ccccc4Br)nn3c2=O)o1`: the IC50 came to 4370 nM.

For `O=C1CCCC2=C1C(c1ccc(O)c(O)c1)c1c(ccc3ncccc13)N2` (configuration not stated), the IC50 was below 400 nM.

`Cn1c(N)c(C(=O)COC(=O)c2cc(-c3ccco3)nc3ccccc23)c(=O)n(Cc2ccccc2)c1=O` displayed an IC50 below 400 nM.

In turn, `CC1(C)CC(=O)C(C=Nc2cccc(/N=C/C3=C(O)CC(C)(C)CC3=O)n2)=C(O)C1` returned an IC50 above 54000 nM.

Turning to `Cc1ccc(C)c(S(=O)(=O)Nc2cc(SCC(=O)O)c(O)c3ccccc23)c1`, the IC50 was below 400 nM.

As to `O=C(O)CCCN1C(=O)/C(=C/C=C/c2ccco2)SC1=S`, the IC50 was above 54000 nM.

In turn, `CSCc1nc2sc(C(=O)Nc3nc(C)cs3)c(C)c2c(=O)[nH]1` showed an IC50 of 4100 nM.

For the molecule `Oc1ccccc1NCC(O)Cn1ccc2ccccc21` (configuration not stated), the half-inhibitory concentration (IC50) stood at 5230 nM.

In turn, `O=C(O)c1cccc(-n2cccc2/C=C2/NC(=O)N(c3ccc(Cl)cc3)C2=O)c1` returned an IC50 below 400 nM.

For the molecule `Cc1cc(C)c(S(=O)(=O)/N=C2/C=C(SCC(=O)O)C(=O)c3ccccc32)cc1C`, the IC50 was below 400 nM.

With `O=C(NCCO)Nc1ccc2nc(-c3ccco3)c(-c3ccco3)nc2c1`, the 50% inhibitory concentration (IC50) was below 400 nM.

In turn, `C/C(=C\c1ccco1)C1Nc2cccc3cccc(c23)N1` registered an IC50 of 3680 nM. This lies in the single-digit micromolar range.

On to `O=C(Nc1ccc([N+](=O)[O-])cc1)Nc1nc(-c2ccc(Cl)s2)cs1`, for which the IC50 came out at 1820 nM.

`CCC(C)NCCCOc1c(C)cc(C)cc1Br` (configuration not stated) showed an IC50 above 54000 nM.

Take `O=C(O)CCn1cc(C=C2C(=O)NC(=S)NC2=O)c(-c2cccc(Br)c2)n1`: the IC50 turned out to be 2180 nM.

Molecule `CCN(CC)S(=O)(=O)c1cccc(C(=O)N/N=C/c2ccc(O)c(O)c2O)c1` showed an IC50 below 400 nM.

For `Cc1cc(NC(=O)CSc2nc(-c3ccc(F)cc3)cs2)no1`, the IC50 is above 54000 nM.

`CCOc1ccc(NC(=O)N(CCN2CCOCC2)Cc2ccc3c(c2)CCCN3CC)cc1`: the IC50 worked out at 953 nM.

The molecule `CCn1c(C)cc(/C=C2\NC(=O)N(Cc3ccc(Cl)cc3)C2=O)c1C` displayed an IC50 of 7520 nM.

In turn, `Cc1ccc(S(=O)(=O)/N=C2/C=C(Sc3ncn[nH]3)C(=O)c3ccccc32)cc1` registered an IC50 below 400 nM.
